PubChem BioAssay (NCI)
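1) Cells in 96-well plates. 2) Compound, 48 h, 5 concentrations. 3) Linear interpolation between surrounding doses. 4) Unreached endpoint = highest concentration. TGI: concentration producing complete growth inhibition.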

Key:
Assay in all cases: NCI anticancer screen, dose series, 48 h
HCC-2998 colon = system: HCC-2998 colon
TK-10 renal = system: TK-10 renal
MDA-N = system: MDA-N
UO-31 renal = system: UO-31 renal
HOP-92 NSCLC = system: HOP-92 NSCLC
SW-620 colon = system: SW-620 colon
NCI-H23 lung = system: NCI-H23 lung
EKVX NSCLC = system: EKVX NSCLC
MALME-3M melanoma = system: MALME-3M melanoma
HCT-116 colon = system: HCT-116 colon
SNB-75 CNS = system: SNB-75 CNS
OVCAR-5 ovarian = system: OVCAR-5 ovarian
SK-MEL-28 melanoma = system: SK-MEL-28 melanoma
SF-539 CNS = system: SF-539 CNS
LOX IMVI melanoma = system: LOX IMVI melanoma
NCI-H226 lung = system: NCI-H226 lung
K-562 leukemia = system: K-562 leukemia
IGROV1 ovarian = system: IGROV1 ovarian
BT-549 breast = system: BT-549 breast
CAKI-1 renal = system: CAKI-1 renal
ACHN renal = system: ACHN renal
UACC-62 melanoma = system: UACC-62 melanoma
OVCAR-8 ovarian = system: OVCAR-8 ovarian
U251 CNS = system: U251 CNS
SK-MEL-2 melanoma = system: SK-MEL-2 melanoma
DU-145 prostate = system: DU-145 prostate
SF-295 CNS = system: SF-295 CNS
T-47D breast = system: T-47D breast
HOP-62 NSCLC = system: HOP-62 NSCLC
HT29 colon = system: HT29 colon
M14 melanoma = system: M14 melanoma
NCI/ADR-RES ovarian = system: NCI/ADR-RES ovarian
MDA-MB-231 breast = system: MDA-MB-231 breast
KM12 colon = system: KM12 colon
OVCAR-4 ovarian = system: OVCAR-4 ovarian
OVCAR-3 ovarian = system: OVCAR-3 ovarian
A498 renal = system: A498 renal
NCI-H522 lung = system: NCI-H522 lung
MOLT-4 leukemia = system: MOLT-4 leukemia
MDA-MB-435 = system: MDA-MB-435
UACC-257 melanoma = system: UACC-257 melanoma
SF-268 CNS = system: SF-268 CNS
A549 NSCLC = system: A549 NSCLC
HCT-15 colon = system: HCT-15 colon
SN12C renal = system: SN12C renal
SK-OV-3 ovarian = system: SK-OV-3 ovarian
RXF 393 renal = system: RXF 393 renal
PC-3 prostate = system: PC-3 prostate
MCF7 breast = system: MCF7 breast
HL-60(TB) leukemia = system: HL-60(TB) leukemia
786-0 renal = system: 786-0 renal
COLO 205 colon = system: COLO 205 colon
RPMI-8226 leukemia = system: RPMI-8226 leukemia
SNB-19 CNS = system: SNB-19 CNS
NCI-H460 lung = system: NCI-H460 lung
CCRF-CEM leukemia = system: CCRF-CEM leukemia
SR leukemia = system: SR leukemia
SK-MEL-5 melanoma = system: SK-MEL-5 melanoma
HS 578T breast = system: HS 578T breast

Measured: TGI

Nc1nc(Cl)c(N)c(NCC2(CO)CC(OCc3ccccc3)C2)n1 (centres undefined)
> 100 µM: all assays above
